Consider one compound from patent US10098924B1, “Anticancer extracts of Alpinia officinarum hance” (KING SAUD UNIVERSITY, priority 2018, dated 2018).

What all share (format): cell-based
Assay [1] concerns HeLa (Cervical carcinoma) cells. In words: MTT cell viability assay, HeLa cells. The following applies: Homo sapiens, about 24 hours incubation. How it is done:
(§1) Briefly, the cell lines were suspended in medium at concentration of about 5×10^4 cells per well in Corning® 96-well tissue culture plates and incubated for about 24 hours. Extracts prepared according to Example 1 were rehydrated, diluted ten times, and each dilution was added to a well of a 96-well plate (using six replicates). Six vehicle controls with media or 0.5% DMSO were run for each 96 well plate as a control. After incubation for about 24 hours, the number of viable cells was determined by the MTT assay method. Briefly, the media was removed from the 96-well plates and replaced with about 100 μl of fresh culture RPMI 1640 medium without phenol red, then about 10 μl of about 12 mM MTT (Sigma) stock solution (5 mg of MTT in about 1 mL of PBS) was added to each well, including the untreated controls. The 96-well plates were then incubated at about 37° C. and at about 5% CO2 for about 4 hours. An 85 μl aliquot of the media was removed from the wells, and 50 μl of DMSO was added to each well and mixed thoroughly with the pipette and incubated at about 37° C. for about 10 minutes. The optical density was measured at 590 nm with a microplate reader to determine the number of viable cells. The percentage of viability was calculated as: (ODt/ODc)×100%, where ODt is the mean optical density of wells treated with the tested sample and ODe is the mean optical density of untreated cells. […]

Assay [2] has as its system CACO (colorectal carcinoma) cells. In words: MTT cell viability assay, CACO cells. The following applies: Homo sapiens, about 24 hours incubation. On the procedure: as §1
For orientation: Tetrazolium dyes change colour on reduction, which living cells bring about.

The test system of assay [3] is PC3 (prostate cancer) cells. In words: MTT cell viability assay, PC3 cells. The following applies: Homo sapiens, PC-3, about 24 hours incubation. On the procedure:
as §1

Assay [4] concerns A-549 (Lung carcinoma) cells. Kind of assay: MTT cell viability assay, A-549 cells. The following applies: Homo sapiens, A549, about 24 hours incubation. On the procedure:
as §1

Assay [5] concerns HCT-116 (Colon carcinoma) cells. In words: MTT cell viability assay, HCT-116 cells. Particulars: Homo sapiens, about 24 hours incubation. How it is done:
as §1

Where a name gives a salt, the structure may show the parent alone.

For the compound `CC[C@]1(O)C[C@@H]2CN(CCc3c([nH]c4ccccc34)[C@@](C(=O)OC)(c3cc4c(cc3OC)N(C)[C@H]3[C@@](O)(C(=O)OC)[C@H](OC(C)=O)[C@]5(CC)C=CCN6CC[C@]43[C@@H]65)C2)C1` [Vinblastine Sulfate, vinblastine sulfate], the half-inhibitory concentration (IC50) in assay [1] was found to be 59.7 ± 2.1 µg/mL; in assay [2] it was 30.3 ± 1.4 µg/mL; in assay [3] it was 21.2 ± 0.9 µg/mL; in assay [4] it was 24.6 ± 0.7 µg/mL; in assay [5] it was 3.5 ± 0.2 µg/mL.

A word on the IC50: it is the concentration at which inhibition is half-maximal. Higher therefore signals weaker potency.
